Data published in US5612373A, “Certain diacyl hydrazine derivatives” (Zeneca Limited, priority 1993, dated 1997).

Key:
[1] = target: T1, ADP stimulated platelet aggregation in human, citrated, platelet-rich plasma (Homo sapiens, UniProt P05106+P08514); experiment: test (a): inhibition of ADP stimulated platelet aggregation (Born); type: cell-based; conditions: ADP-induced aggregation, read-out: pA2 (potency of platelet aggregation inhibition) (converted)
T1 construct: aggregating human, citrated, platelet-rich plasma; endogenous in cells; host or cells: human platelets in citrated platelet-rich plasma
Description: (i) aggregating human, citrated, platelet-rich plasma by addition of adenosine diphosphate (ADP) so as to generate a dose-response curve;
(ii) generating a dose-response curve for ADP stimulated platelet aggregation in the presence of increasing amounts of a test compound (generally in the range 10^-5 M to 10^-10 M); and
(iii) calculating a pA2 value indicating potency of platelet aggregation inhibition for the test compound, averaged over several concentrations, from the calculated 50% response value for ADP aggregation in the presence and absence of the test compound.

platelet aggregation = experiment: test (a) modified: activity after oral dosing to dogs; type: in vivo; conditions: dosed orally to dogs at 3 mg/kg
Protocol: Test (a) may be modified so as to assess the effects of a test compound ex vivo on the aggregation of human blood platelets after administration of the test compound to a laboratory animal, such as a rat, rabbit, guinea pig, mouse or dog. For example, groups of fourmale, fasted Alderley Park Wistar rats are orally dosed with a test compound or appropriate vehicle, and at suitable time intervals (1, 3, 5 and 8 hours after dosing) animals are anaesthetised with fluothane and bled by heart puncture. Blood is collected into 3.2% citrate (1 part to 9 parts whole blood) and platelet poor plasma (ppp) prepared by centrifugation (4500×g for 10 minutes). […]
Equal volumes (125 μl ) of rat ppp and human prp are mixed together, ADP added, and the whole incubated (37° C.) and stirred (900 rpm) in a BioData platelet aggregometer. Aggregation is induced with ADP and agonist EC50 values calculated for human prp/rat ppp mixtures from animals dosed with test compound or vehicle. A mean concentration ratio (concentration of ADP required to cause a 50% aggregation response in human prp/rat ppp mixtures from animals dosed with antagonist, divided by the concentration of ADP to cause 50% aggregation in human prp/rat ppp mixtures from animals dosed with vehicle) is calculated at each time point. […]

[2] = target: T2, purified human platelet fibrinogen receptor (GPIIb/IIIa) (Homo sapiens, UniProt P05106+P08514); experiment: test (b): GPIIb/IIIa ELISA, inhibition of biotinylated fibrinogen binding; conditions: biotinylated fibrinogen 10 nM, read-out: pIC50 (-log(IC50)), 50% inhibition of biotinylated fibrinogen binding (converted)
T2 construct: Glycoprotein IIb/IIIa is isolated from human platelet lysates; from tissue
Protocol: (i) Preparation of human platelet lysates.
Platelet rich plasma (prp) is harvested by centrifugation (1000 rpm, 15 minutes) of whole blood anticoagulated with acid citrate dextrose (trisodium citrate 85 mM, citric acid 70 mM, d-glucose 110 mM), 1 part to 6 parts blood. Prostacyclin (PGI2, 1 μM) is added to the prp before centrifugation (2400 rpm, 15 min) and the resulting pellet is resuspended in modified Tyrodes' solution (NaCl 130 mM, KCl 26 mM, NaHCO3 12 mM, NaH2 PO4 0.5 mM, MgCl2 1 mM, CaCl2 20 mM, Glucose 12 mM, HEPES 5 mM) containing bovine serum albumin 3.5 g/L, PGI2 1 μM and hirudin 0.5 U/ml. The platelet suspension is centrifuged (2400 rpm, 15 minutes) and the resultant pellet resuspended in 500 μl of lysis buffer (octyl glucoside 50 mM, HEPES 10 mM, NaCl 150 mM, CaCl2 1 mM, MgCl2 1 mM, PMSF 1 mM, NEM 10 mM, leupeptin 0.1 mM), agitated at 4° C. for 15 minutes then centrifuged at 24000 rpm, 15 minutes. The supernatant is stored at 4° C. and the pellet re-suspended in 500 μl of lysis buffer. […]
96 well microtitre plates are coated with 100 μl purified human platelet fibrinogen receptor (GPIIb/IIIa) diluted in coating buffer (Tris-HCl 20 mM, NaCl 150 mM, CaCl2 1 mM, pH7.4) and left overnight at 4° C. […] Colour is allowed to develop for 10-15 minutes before optical densities are read at 650 nm. […]

T1 sequence (P08514 32-887 limits assumed): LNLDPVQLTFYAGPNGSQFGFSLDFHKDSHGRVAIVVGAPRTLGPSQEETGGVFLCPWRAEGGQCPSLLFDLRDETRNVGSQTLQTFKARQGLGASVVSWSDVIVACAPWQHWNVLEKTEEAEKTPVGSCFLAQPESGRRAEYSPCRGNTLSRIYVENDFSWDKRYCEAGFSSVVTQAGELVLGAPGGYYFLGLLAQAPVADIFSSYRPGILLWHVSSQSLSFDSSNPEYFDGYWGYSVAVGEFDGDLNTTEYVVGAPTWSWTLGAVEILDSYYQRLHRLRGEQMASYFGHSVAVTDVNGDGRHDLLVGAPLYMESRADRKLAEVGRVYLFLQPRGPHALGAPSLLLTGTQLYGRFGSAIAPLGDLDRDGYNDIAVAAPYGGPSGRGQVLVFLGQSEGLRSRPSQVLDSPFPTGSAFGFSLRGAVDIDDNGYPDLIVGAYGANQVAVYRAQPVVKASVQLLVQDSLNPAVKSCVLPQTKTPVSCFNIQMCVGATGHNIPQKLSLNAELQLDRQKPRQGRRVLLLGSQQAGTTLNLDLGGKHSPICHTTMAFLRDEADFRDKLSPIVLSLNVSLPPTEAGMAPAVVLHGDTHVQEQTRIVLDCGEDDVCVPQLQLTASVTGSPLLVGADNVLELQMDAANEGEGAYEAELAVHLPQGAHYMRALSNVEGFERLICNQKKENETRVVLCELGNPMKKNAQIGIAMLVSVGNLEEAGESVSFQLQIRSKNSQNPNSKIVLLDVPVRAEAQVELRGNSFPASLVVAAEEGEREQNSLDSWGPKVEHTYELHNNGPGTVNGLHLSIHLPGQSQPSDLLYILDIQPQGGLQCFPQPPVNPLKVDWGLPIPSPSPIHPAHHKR
T1 sequence (P08514 891-1039 limits assumed): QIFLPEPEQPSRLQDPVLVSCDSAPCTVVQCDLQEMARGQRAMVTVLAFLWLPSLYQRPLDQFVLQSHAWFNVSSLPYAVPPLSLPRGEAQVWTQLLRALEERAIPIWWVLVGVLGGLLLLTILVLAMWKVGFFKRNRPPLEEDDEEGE
T1 sequence (P05106 27-788): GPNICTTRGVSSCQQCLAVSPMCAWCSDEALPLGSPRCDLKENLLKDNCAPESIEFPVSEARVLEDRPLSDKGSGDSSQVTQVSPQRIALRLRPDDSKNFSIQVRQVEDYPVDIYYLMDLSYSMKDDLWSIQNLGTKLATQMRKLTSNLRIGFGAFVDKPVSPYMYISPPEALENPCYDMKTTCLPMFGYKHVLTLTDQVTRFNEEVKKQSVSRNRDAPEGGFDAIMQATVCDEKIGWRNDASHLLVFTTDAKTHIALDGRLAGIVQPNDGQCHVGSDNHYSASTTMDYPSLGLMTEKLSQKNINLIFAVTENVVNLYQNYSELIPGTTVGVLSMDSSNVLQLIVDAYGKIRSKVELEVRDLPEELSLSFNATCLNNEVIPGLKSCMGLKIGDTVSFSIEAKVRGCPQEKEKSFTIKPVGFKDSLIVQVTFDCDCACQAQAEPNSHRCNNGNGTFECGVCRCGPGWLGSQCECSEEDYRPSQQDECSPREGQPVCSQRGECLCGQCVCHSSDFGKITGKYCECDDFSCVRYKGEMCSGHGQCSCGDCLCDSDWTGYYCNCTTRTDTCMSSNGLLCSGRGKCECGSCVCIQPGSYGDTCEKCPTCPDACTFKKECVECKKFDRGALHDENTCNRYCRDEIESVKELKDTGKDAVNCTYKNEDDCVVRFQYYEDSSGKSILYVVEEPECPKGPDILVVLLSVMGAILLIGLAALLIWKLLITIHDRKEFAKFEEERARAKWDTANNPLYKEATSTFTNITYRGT
T2 sequence (P08514 32-887 limits assumed): as the sequence (P08514 32-887 limits assumed) above
T2 sequence (P08514 891-1039 limits assumed): as the sequence (P08514 891-1039 limits assumed) above
T2 sequence (P05106 27-788): as the sequence (P05106 27-788) above

| Kb [1] [nM] | IC50 [2] [nM] | SMILES | duration of activity after oral dosing (platelet aggregation) |
| --- | --- | --- | --- |
| 200 | 1120 | COC(=O)COc1ccc(C(=O)NNC(=O)c2ccc(C(=N)N)cc2)cc1 [Example 12, Methyl 4-[3-(4-amidinobenzoyl)carbazoyl]phenoxyacetate] | up to 24 hours |
| 7.94 | 15.8 | N=C(N)c1ccc(C(=O)NNC(=O)c2ccc(OCC(=O)O)cc2)cc1 [Example 13, 4-[3-(4-Amidinobenzoyl)carbazoyl]phenoxyacetic acid] |  |
